# Ends that are not written are not given here.
# Tests used:
# [1] = tested on: effector T cells (Teff) (CD4+CD127+); assay: Gene expression in FACS-sorted Teff of trial patients (TaqMan); format: in vivo, human
# Procedure: FIG. 3. Effector and regulatory T cell function differ according to clinical response: a. effector T cells (Teff) (CD4+CD127+) at beginning of the trial (TO) and end of the study (Tend) were compared for PD-1 expression in both SEQ ID NO. 1 clinical responders and placebo clinical non-responders by FACS. b. FACS-sorted Teffwere analyzed for IL-17 and for RORC. Teff were stained intracellularly with IL-17A, and analyzed by FACS. c. regulatory T cell (Treg) (CD4+CD25++CD127−) frequency (% of PBMC) was determined in SEQ ID NO. 1—treated clinical responders by FACS. […] Values are the mean and s.e.m. d. Treg functionality in SEQ ID NO. […] (placebo clinical non-responders vs SEQ ID NO. 1 clinical responders, —76.21+/−3.665 vs 8.443+/−4.677, n=2 vs 3, t-test p0.0010). Values are the mean and s.e.m.
# In FIG. 3b Y axis: % net change between Tend and T0 for both Teff producing IL-17A (first two columns, measured by FACS) and RORC expression (measured by TaqMan). […] Results were analyzed as a percentage of GAPDH. […] Values are the mean and s.e.m.
# Successful treatment with SEQ ID NO: 1 therefore induced an immune deviation of Teff cells by reducing their ability to produce pro-inflammatory cytokines. An increase in the number of Treg cells could be one possible explanation for this observation.
# [2] = tested on: CD4+FoxP3+Tregs and CD4+CD45RO+memory T cells; assay: Cluster analysis and manual gating of Treg and memory T cell compartments of trial patients; format: in vivo, human
# Source text: Cluster analysis of the immune profiles of healthy individuals and rheumatoid arthritis patients reveal profound perturbations in the various immune cell compartments (FIG. 8). Immune tolerization achieved with SEQ ID NO: 1 treatment reshapes the immunomes of rheumatoid patients (FIG. 8B). The underlying immunological mechanisms behind immune tolerization was investigated by utilising staining panels for surface and activation markers on T cells (FIG. 13).
# Immune phenotypes enriched in this cell subset of SEQ ID NO: 1 responders were memory T cells displaying activation and tolerogenic characteristics (FIG. 11B).
# [3] = tested on: PBMCs; assay: TaqMan gene expression of regulatory molecules in PBMCs incubated in vitro with SEQ ID NO. 1; format: cell-based, human; conditions: T0 PBMCs incubated with 10 mg/ml SEQ ID NO. 1 for 48 hours
# Procedure: PBMCs from T0 were incubated in vitro with 10 mg/ml SEQ ID NO. 1 for 48 hours, and TaqMan was performed as described earlier. Data are expressed as 2(−dCT)×100 of GAPDH. PD-1, 0.3595+/−0.1033 vs 0.9310+/−0.1961, n=S, p0.0327 PD-L1, 0.1400+/−0.05308 vs 1.080+/−0.1926, n=6, p0.0005 CTLA-4, 0.2667+/−0.07313 vs 4.809+/−2.606, n=6, p0.0588 Foxp3, 0.2678+/−0.1267 vs 2.329+/−0.9527, n=6, p0.0422 P values were obtained by t-test.
# [4] = tested on: patients with early rheumatoid arthritis; assay: Phase II trial of mucosal tolerization to SEQ ID NO. 1: clinical outcome; format: in vivo, human
# Procedure: The model employed here is based on the hypothesis that immune tolerization to a T-cell epitope, such as SEQ ID NO. 1 that may be a contributor of inflammation in patients with rheumatoid arthritis, may lead to detectable clinical improvement. A total of 96 patients with early rheumatoid arthritis, who were not allowed on Methotrexate or biologics, were tested with mucosal tolerization to SEQ ID NO. 1. Patients are defined as “responders” if they meet the response criteria at any time during the study. […] SEQ ID NO. […]
# [5] = tested on: peripheral blood mononuclear cells (PBMCs); assay: Immune deviation in PBMCs of trial patients (cytokine production, PD-1 expression); format: in vivo, human; conditions: for production of interleukin 10 (IL-10) / production of tumor necrosis factor α (TNFα): PBMCs / T cell subset of treated patients; for expression of Programmed Death 1 (PD-1) in PBMC: clinical responders, data not shown
# Procedure: The model employed here is based on the hypothesis that immune tolerization to a T-cell epitope, such as SEQ ID NO. 1 that may be a contributor of inflammation in patients with rheumatoid arthritis, may lead to detectable clinical improvement. A total of 96 patients with early rheumatoid arthritis, who were not allowed on Methotrexate or biologics, were tested with mucosal tolerization to SEQ ID NO. 1. Patients are defined as “responders” if they meet the response criteria at any time during the study. […] SEQ ID NO.
# 1 (herein dubbed clinical responders) was observed (data not shown). PD-1 was first described as a contributor to T-cell anergy and exhaustion in chronic viral infections and cancer.
# It is established that SEQ ID NO: 1 treatment was associated with an immune deviation in the T cell subset characterized by a decrease and an increase in tumor necrosis factor α (TNFα) and IL-10, respectively.
# [6] = responders, end of the treatment regime (FIG. 9A)
# [7] = placebo clinical non-responders
substance,measurement,setting,value
QKRAAYDQYGHAAFE-NH2 [SEQ ID NO. 1],RORC gene expression in Teff,"[1]; clinical responders, Tend, T0 3.382+/−0.684, mean and s.e.m.",1.670+/−0.714 percentage of GAPDH
same,IFNγ expression in CD4+Teff cells,[1]; [6],significantly lower levels
same,IL-17A expression in CD4+Teff cells,[1]; [6],significantly lower levels
same,"percentage of CD4+FoxP3+Tregs expressing GITR, PD-1 and HLA-DR",[2]; SEQ ID NO: 1 responders versus placebo non-responders (FIG. 8E),higher percentage
same,proportion of CD4+CD45RO+memory T cells activated and regulatory (CD69 and TGFβ expression),[2]; SEQ ID NO: 1 responders versus placebo non-responders (FIG. 11C),larger proportion
same,CTLA-4 gene expression in PBMCs,[3]; clinical responders,4.809+/−2.606 2(−dCT)×100 of GAPDH
same,Foxp3 gene expression in PBMCs,[3]; clinical responders,2.329+/−0.9527 2(−dCT)×100 of GAPDH
same,PD-1 gene expression in PBMCs,[3]; clinical responders,0.9310+/−0.1961 2(−dCT)×100 of GAPDH
same,PD-L1 gene expression in PBMCs,[3]; clinical responders,1.080+/−0.1926 2(−dCT)×100 of GAPDH
same,CTLA-4 gene expression in PBMCs,[3]; [7],0.2667+/−0.07313 2(−dCT)×100 of GAPDH
same,Foxp3 gene expression in PBMCs,[3]; [7],0.2678+/−0.1267 2(−dCT)×100 of GAPDH
same,PD-1 gene expression in PBMCs,[3]; [7],0.3595+/−0.1033 2(−dCT)×100 of GAPDH
same,PD-L1 gene expression in PBMCs,[3]; [7],0.1400+/−0.05308 2(−dCT)×100 of GAPDH
same,safety of mucosal tolerization,[4]; 96 patients with early rheumatoid arthritis,safe
same,clinical efficacy,"[4]; 96 patients with early rheumatoid arthritis, no Methotrexate or biologics",comparable to the use of Methotrexate alone
same,joint pain,[4]; after treatment withdrawal (FIG. 11E),Sustained improvements
same,joint swelling,[4]; after treatment withdrawal (FIG. 11F),Sustained improvements
same,Physician global assessment scores,"[4]; one month after clinical withdrawal, versus placebo (FIG. 11D)",performed better than placebo
same,production of interleukin 10 (IL-10),[5],increased production
same,production of tumor necrosis factor α (TNFα),[5],decreased production
same,production of interleukin 10 (IL-10),[5]; listed as SEQ ID NO: 1,increase
same,production of tumor necrosis factor α (TNFα),[5]; listed as SEQ ID NO: 1,decrease
same,expression of Programmed Death 1 (PD-1) in PBMC,[5],significantly higher expression
same,expression of Programmed Death 1 (PD-1) in PBMC,[5]; listed as SEQ ID NO: 1,significantly higher levels

# — patent publication US20240287136A1, “PHARMACEUTICAL COMPOSITION AND THE USE THEREOF IN THE TREATMENT OF AUTOIMMUNE DISEASES” (Singapore Health Services Pte. Ltd., priority 2016, published 2024)
